We go through eight compounds from patent US10280160B2, “Phthalazinone compounds and methods for the treatment of cystic fibrosis” (FLATLEY DISCOVERY LAB, LLC, priority 2013, dated 2019).

Each structure is given as a SMILES string.

Sequence of human F508del CFTR (P13569 other isoform, or with tags, fused parts or gaps del F508-F508): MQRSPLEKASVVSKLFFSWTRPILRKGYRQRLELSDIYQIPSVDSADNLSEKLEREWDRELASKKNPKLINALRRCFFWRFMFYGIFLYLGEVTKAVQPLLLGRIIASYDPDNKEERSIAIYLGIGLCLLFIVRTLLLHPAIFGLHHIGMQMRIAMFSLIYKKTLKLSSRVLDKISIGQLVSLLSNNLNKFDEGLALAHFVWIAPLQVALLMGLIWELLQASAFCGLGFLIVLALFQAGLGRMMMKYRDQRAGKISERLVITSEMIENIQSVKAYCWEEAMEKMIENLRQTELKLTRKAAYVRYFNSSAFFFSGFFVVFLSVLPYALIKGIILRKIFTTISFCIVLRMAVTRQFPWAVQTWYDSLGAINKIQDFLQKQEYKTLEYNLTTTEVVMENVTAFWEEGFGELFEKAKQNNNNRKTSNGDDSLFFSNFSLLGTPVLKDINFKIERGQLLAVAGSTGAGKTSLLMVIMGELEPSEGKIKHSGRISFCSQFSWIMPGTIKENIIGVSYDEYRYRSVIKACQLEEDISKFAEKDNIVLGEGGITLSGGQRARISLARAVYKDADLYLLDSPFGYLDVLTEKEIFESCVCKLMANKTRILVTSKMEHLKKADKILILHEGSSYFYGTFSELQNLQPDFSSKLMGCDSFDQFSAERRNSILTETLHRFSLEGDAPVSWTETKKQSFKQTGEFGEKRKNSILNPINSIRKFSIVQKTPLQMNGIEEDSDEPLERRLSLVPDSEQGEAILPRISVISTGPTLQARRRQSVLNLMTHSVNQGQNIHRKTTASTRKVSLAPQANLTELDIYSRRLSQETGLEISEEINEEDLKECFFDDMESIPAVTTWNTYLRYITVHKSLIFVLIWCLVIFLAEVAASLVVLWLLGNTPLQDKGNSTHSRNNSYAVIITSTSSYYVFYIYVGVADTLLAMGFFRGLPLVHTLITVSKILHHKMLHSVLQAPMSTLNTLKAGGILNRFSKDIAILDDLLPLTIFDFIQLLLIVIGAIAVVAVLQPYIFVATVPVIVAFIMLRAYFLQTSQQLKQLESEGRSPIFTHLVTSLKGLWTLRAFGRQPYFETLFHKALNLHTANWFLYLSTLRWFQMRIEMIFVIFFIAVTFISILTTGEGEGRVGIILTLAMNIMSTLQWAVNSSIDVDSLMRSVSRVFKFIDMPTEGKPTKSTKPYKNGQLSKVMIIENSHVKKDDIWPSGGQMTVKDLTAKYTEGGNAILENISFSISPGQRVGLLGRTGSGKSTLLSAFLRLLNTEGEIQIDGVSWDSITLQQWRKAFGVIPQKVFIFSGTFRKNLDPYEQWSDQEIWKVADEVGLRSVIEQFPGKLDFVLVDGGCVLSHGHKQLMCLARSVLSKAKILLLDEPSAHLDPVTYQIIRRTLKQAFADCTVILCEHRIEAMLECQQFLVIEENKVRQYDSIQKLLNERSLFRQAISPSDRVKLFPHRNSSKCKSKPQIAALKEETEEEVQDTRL

For the test, the target named is human F508del CFTR (Homo sapiens (Human), UniProt P13569, DEL508-508). The experiment in a line: CFTR-YFP High Throughput Assay (YFP halide flux, FRT cells). The following applies: EMax normalized to the positive control; FRT cells expressing human F508del CFTR and YFP; read-out: % Efficacy. The format is cell-based. On the procedure:
Assays for Detecting and Measuring the Effect of Compounds on F508del-CFTR Channels CFTR-YFP Assay-CFTR Corrector Protocol:
This protocol is designed to selectively screen small molecule compounds for F508del CFTR corrector activities in the YFP (yellow fluorescent protein) flux assay. In this protocol, the cells are incubated with testing compounds for 24 hours, washed with PBS, stimulated with forskolin and a standard potentiator, and fluorescence in each plate well is measured kinetically read on a 384-well plate reader, such as the Hamamatsu FDSS-6000.
YFP fluorescence intensity values are acquired at high speed before and after iodide buffer is injected to the assay cells. Iodide enters the cells via active CFTR channels in the plasma membrane, and quenches the YFP fluorescence. The rate of fluorescence quenching is proportionate to the total CFTR activity in the cell membrane. F508del CFTR correctors increase the number of CFTR molecules in the testing cell plasma membrane, and thereby accelerate YFP quenching.
This method was initially developed for bench top plate readers (Galietta, J, Jayaraman, S and Verkman, A S. Cell-based assay for high-throughput quantitative screening of CFTR chloride transport agonists. Am. J. Physiol. Cell Physiol. (2001), 281: C173), and was adapted to the HTS format (Sui J, Cotard S, Andersen J, Zhu P, Staunton J, Lee M, Lin S. Optimization of a Yellow fluorescent protein-based iodide influx high-throughput screening assay for cystic fibrosis transmembrane conductance regulator (CFTR) modulators. Assay Drug Dev Technol. (2010), 8: 656-668).
Fisher Rat Thyroid (FRT) cells stably expressing both human F508del CFTR and a halide-sensitive yellow fluorescent protein (YFP-H148Q/I152L 25,22) (Galietta et al. Am. J. Physiol Cell Physiol 281(5), C1734, 2001) were cultured on plastic surface in Coon's modified Ham's F12 medium supplemented with FBS 10%, L-glutamine 2 mM, penicillin 100 U/ml, and streptomycin 100 μg/ml. G418 (0.75-1.0 mg/ml) and zeocin (3.2 ug/ml) were used for selection of FRT cells expressing F508del CFTR and YFP. For primary screening, FRT cells were plated into 384-well black wall, transparent bottom microtiter plates (Costar; Corning Inc.) at a cell density of 20,000-40,000 per well. Test compound was applied to the cells at varying concentrations ranging from 2 nM-40 μM in either a 2-fold or 3-fold dilution series. Cells were incubated in a cell culture incubator at 37° C. with 5% CO2 for 24-26 h. Assay plates were washed with DPBS media (Thermo, cat # SH30028.02) to remove unbound cells and compound. Stimulation media (25 μL) containing 20 μM Forskolin & 30 μM P3 [6-(Ethyl-phenyl-sulfonyl)-4-oxo-1,4-dihydro-quinoline-3-carboxylic acid 2-methoxy-benzylamide] in Hams F-12 coon's modified media was added to the plate wells and incubated at room temperature for 60-120 min. 25 μL of HEPES-PBS-I buffer (10 mM HEPES, 1 mM MgCl2, 3 mM KCl, 1 mM CaCl2, 150 mM NaI) was then added and fluorescence quench curves (Excitation 500 nm/Emission 540 nm; exposure 136 ms) were immediately recorded on an FDSS-6000 plate reader (Hamamatsu). Quench rates were derived from least squares fitting of the data as described by Sui et al (2010).
CFTR-YFP Assay-CFTR Potentiator Protocol:
This protocol is designed to selectively screen small molecule compounds for F508del CFTR potentiator activities in the YFP (yellow fluorescent protein) flux assay. Such compounds act acutely to stimulate CFTR already expressed on the membrane surface. In this protocol, the cells are incubated at 27° C. for 24 hours to homogeneously boost F508del CFTR expression in the cell membrane (low temperature correction), washed with PBS, treated with test compound, and CFTR activity is stimulated with forskolin for 1-2 hr. Measurement of ion flux is initiated by addition of iodide-containing buffer, and YFP quenching is kinetically recorded using a 384-well plate reader, such as the Hamamatsu FDSS-6000. […]
On to `Cc1nc2ccc(N(C)C(=O)Cn3nc(-c4cccc(Cl)c4)c4ccc(OCC5CC5)cc4c3=O)cc2o1` [Example 24, 2-(4-(3-chlorophenyl)-7-(cyclopropylmethoxy)-1-oxophthalazin-2(1H)-yl)-N-methyl-N-(2-methylbenzo[d]oxazol-6-yl)acetamide], for which the Emax is above 80%.
The same measure for `Cc1nc2ccc(N(C)C(=O)Cn3nc(-c4cccc(Cl)c4)c4ccc(OC(C)C)cc4c3=O)cc2o1` [Example 25, 2-(4-(3-chlorophenyl)-7-isopropoxy-1-oxophthalazin-2(1H)-yl)-N-methyl-N-(2-methylbenzo[d]oxazol-6-yl)acetamide]: above 80%; for `Cc1nc2ccc(N(C)C(=O)Cn3nc(-c4cccc(Cl)c4)c4ccc(OC5CCCCC5)cc4c3=O)cc2o1` [Example 26, 2-(4-(3-chlorophenyl)-7-(cyclohexyloxy)-1-oxophthalazin-2(1H)-yl)-N-methyl-N-(2-methylbenzo[d]oxazol-6-yl)acetamide]: above 80%; for `Cc1nc2ccc(N(C)C(=O)Cn3nc(-c4cccc(F)c4)c4ccc(OC5CCOCC5)cc4c3=O)cc2o1` [Example 27, 2-(4-(3-fluorophenyl)-1-oxo-7-((tetrahydro-2H-pyran-4-yl)oxy)phthalazin-2(1H)-yl)-N-methyl-N-(2-methylbenzo[d]oxazol-6-yl)acetamide]: above 80%.
The result for `Cc1nc2ccc(N(C)C(=O)Cn3nc(-c4cccc(F)c4)c4ccc(OC5CCCCC5)cc4c3=O)cc2o1` [Example 28, 2-(7-(cyclohexyloxy)-4-(3-fluorophenyl)-1-oxophthalazin-2(1H)-yl)-N-methyl-N-(2-methylbenzo[d]oxazol-6-yl)acetamide] reads above 80%; that for `Cc1nc2ccc(N(C)C(=O)Cn3nc(-c4cccc(Cl)c4)c4ccc(OC5CCOCC5)cc4c3=O)cc2o1` [Example 29, 2-(4-(3-chlorophenyl)-1-oxo-7-((tetrahydro-2H-pyran-4-yl)oxy)phthalazin-2(1H)-yl)-N-methyl-N-(2-methylbenzo[d]oxazol-6-yl)acetamide], above 80%.
The same measure for `CCOc1cc2c(=O)n(CC(=O)N(C)c3ccc4nc(C)oc4c3)nc(-c3cccc(F)c3)c2cc1Cl` [Example 30]: 30 to 80%; for `CCOc1cc2c(=O)n(CC(=O)N(C)c3ccc4nc(C)oc4c3)nc(-c3cccc(Cl)c3)c2cc1Cl` [Example 31, 2-(6-chloro-4-(3-chlorophenyl)-7-ethoxy-1-oxophthalazin-2(1H)-yl)-N-methyl-N-(2-methylbenzo[d]oxazol-6-yl)acetamide]: above 80%.
